What was measured:
ErbB4 = ErbB4 (Homo sapiens, UniProt Q15303); experiment: kinase profiling, ErbB4; assay type: biochemical; details: read-out: In vitro kinase inhibitory activity (%)
Description: (§1) Kinase inhibitory activity of the candidate compound at 10 μM and 25 μM was assessed using Eurofins Kinase Profiling Services. Inhibitory effects on c-RAF, EGFR, ErbB2, ErbB4, and PI3 kinase were analyzed according to the Kinase Profiler Service Assay protocol.

HER2 = experiment: IHC of NCI-N87 xenograft tumors, HER2; assay type: in vivo, mice; details: vs control group
Description: Xenograft mice were generated to evaluate the anticancer effects of the candidate compound. NCI-N87 and JIMT-1 cells (5×10^6 cells), dissolved in 100 μL of 1× phosphate-buffered saline (PBS), were subcutaneously injected into the right flanks of 5-week-old female athymic nude mice (Envigo, USA) or 4-week-old female NOD-SCID mice (Koatech, South Korea). When the tumors reached a volume of 90-100 mm^3, the mice were randomized into designated groups. For the NCI-N87 xenograft, intravenous administration was performed six times at 3-day intervals. For the JIMT-1 xenograft, intraperitoneal administration was performed eight times at 3-day intervals. […] Tumor size changes were monitored until the mean tumor size in the control group reached 2,000-2,500 mm^3. On day 28 for the NCI-N87 xenograft and day 46 for the JIMT-1 xenograft, the mice were sacrificed, and tumors were excised to determine relative tumor sizes. Tumor length (L) and width (W) were measured with calipers, and tumor volume was calculated using the formula: […]
For immunohistochemistry (IHC) analysis, tumors from the xenograft models were prepared as paraffin-embedded sections. […] The control group was counterstained with hematoxylin, and the IHC staining was evaluated under an optical microscope at 200× magnification.

TZMB-resistant cells = experiment: treatment of TZMB-resistant cells; assay type: cell-based; details: BT474 TR, NCI-N87 TR, JIMT-1
Description: The ability of the candidate compound to overcome trastuzumab resistance was evaluated.

[1] = target: T1, (His)6-MED23391-582 / FITC-ELF3129-145 peptide (Homo sapiens, UniProt Q9ULK4); experiment: fluorescence polarization displacement assay; assay type: binding
T1 construct: 391-582 and fluorescein isothiocyanate (FITC)-labeled
T1 sequence (Q9ULK4 391-582 limits assumed): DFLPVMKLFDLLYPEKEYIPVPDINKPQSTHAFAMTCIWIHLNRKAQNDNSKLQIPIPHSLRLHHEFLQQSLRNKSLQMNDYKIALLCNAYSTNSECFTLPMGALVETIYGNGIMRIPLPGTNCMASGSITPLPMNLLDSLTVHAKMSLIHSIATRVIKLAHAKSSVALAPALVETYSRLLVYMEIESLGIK
Description: The samples, adjusted to a final volume of 50 μL, were incubated at room temperature for 30 minutes. Kd values were calculated using a least-squares non-linear fit method with Prism 6.0 software (GraphPad Software, USA). FP signals were measured in millipolarization (mP) units using an Infinite F200 PRO microplate reader (Tecan Group Ltd., Switzerland) at an excitation wavelength of 485 nm and an emission wavelength of 535 nm. For displacement analysis, graded concentrations of YK1 and unlabeled ELF3137-144 peptides were mixed with 80 nM (His) 6-MED23391-582 and 10 nM FITC-ELF3129-145.
The effect of compound YK1 was confirmed by measuring the reduction in FP signals, using unlabeled peptides as a positive control. The IC50 of each compound was determined by fitting the data to a four-parameter logistic equation using the Table Curve 2D program (SPSS Inc.). The Ki value was calculated using the Cheng-Prusoff equation (Ki=IC50/1+([Ligand]/Kd))

MED23^D400A/H449G = target: T2, MED23^D400A/H449G (Homo sapiens, UniProt Q9ULK4, D400A/H449G); experiment: LC-MS/MS protein-small molecule interaction, double mutant; assay type: binding; details: FLAG pulldown
T2 construct: FLAG pulldown, LC-MS/MS
Description: HEK293 cells were seeded in a […] and incubated until they reached 70-80% confluency. The cells were transfected with p3Xflag-myc-CMV26-MED23^WT and p3Xflag-myc-CMV26-MED23^D400A/H449G plasmids for 24 hours, followed by lysis to obtain protein extracts. To isolate the candidate compound (YK1) bound to MED23, total lysates were incubated with YK1 for 4 hours and subsequently subjected to pulldown using FLAG-agarose beads (Sigma Aldrich, USA). The precipitated beads were washed at least three times to completely remove unbound compounds. To separate the candidate compound from the precipitated MED23, 50 μL of the sample was extracted with 1 mL of acetonitrile and centrifuged at 13,000 rpm at 4 °C for 10 minutes. The supernatant (1,000 μL) from each sample was transferred to a new tube and dried under nitrogen gas at 37 °C. For YK1 analysis, the residue was dissolved in 50 μL of ACN and vortexed for 10 minutes. […] The mixture was then extracted with 450 μL of ACN by ultrasonic treatment and vortex mixing. The candidate compound bound to MED23 was finally analyzed using an Agilent 6460 triple quadrupole mass spectrometer (Agilent Technologies, USA).

[2] = target: HER family kinases (EGFR, ErbB2, and ErbB4) or kinases associated with the AKT/MAPK pathway (PI3 kinase and c-RAF); experiment: kinase profiling, summary over the panel; assay type: biochemical; details: 10 μM and 25 μM
Description: as §1

PI3 Kinase (p110a/p85a) = PI3 Kinase (p110a/p85a) (Homo sapiens, UniProt P42336); experiment: kinase profiling, PI3 kinase; assay type: biochemical; details: read-out: In vitro kinase inhibitory activity (%)
Description: as §1

[3] = JIMT-1 xenograft, body weight; assay type: in vivo, mice; details: 4 mg/kg
Description: Xenograft mice were generated to evaluate the anticancer effects of the candidate compound. […] When the tumors reached a volume of 90-100 mm^3, the mice were randomized into designated groups. […] For the JIMT-1 xenograft, intraperitoneal administration was performed eight times at 3-day intervals. […] Tumor size changes were monitored until the mean tumor size in the control group reached 2,000-2,500 mm^3. On day 28 for the NCI-N87 xenograft and day 46 for the JIMT-1 xenograft, the mice were sacrificed, and tumors were excised to determine relative tumor sizes. Tumor length (L) and width (W) were measured with calipers, and tumor volume was calculated using the formula:
To assess resistance-avoidance effects in vivo, JIMT-1 xenograft mice were treated with 4 mg/kg of the candidate compound or TZMB.

Sequence of PI3 Kinase (p110a/p85a) (P42336 whole entry): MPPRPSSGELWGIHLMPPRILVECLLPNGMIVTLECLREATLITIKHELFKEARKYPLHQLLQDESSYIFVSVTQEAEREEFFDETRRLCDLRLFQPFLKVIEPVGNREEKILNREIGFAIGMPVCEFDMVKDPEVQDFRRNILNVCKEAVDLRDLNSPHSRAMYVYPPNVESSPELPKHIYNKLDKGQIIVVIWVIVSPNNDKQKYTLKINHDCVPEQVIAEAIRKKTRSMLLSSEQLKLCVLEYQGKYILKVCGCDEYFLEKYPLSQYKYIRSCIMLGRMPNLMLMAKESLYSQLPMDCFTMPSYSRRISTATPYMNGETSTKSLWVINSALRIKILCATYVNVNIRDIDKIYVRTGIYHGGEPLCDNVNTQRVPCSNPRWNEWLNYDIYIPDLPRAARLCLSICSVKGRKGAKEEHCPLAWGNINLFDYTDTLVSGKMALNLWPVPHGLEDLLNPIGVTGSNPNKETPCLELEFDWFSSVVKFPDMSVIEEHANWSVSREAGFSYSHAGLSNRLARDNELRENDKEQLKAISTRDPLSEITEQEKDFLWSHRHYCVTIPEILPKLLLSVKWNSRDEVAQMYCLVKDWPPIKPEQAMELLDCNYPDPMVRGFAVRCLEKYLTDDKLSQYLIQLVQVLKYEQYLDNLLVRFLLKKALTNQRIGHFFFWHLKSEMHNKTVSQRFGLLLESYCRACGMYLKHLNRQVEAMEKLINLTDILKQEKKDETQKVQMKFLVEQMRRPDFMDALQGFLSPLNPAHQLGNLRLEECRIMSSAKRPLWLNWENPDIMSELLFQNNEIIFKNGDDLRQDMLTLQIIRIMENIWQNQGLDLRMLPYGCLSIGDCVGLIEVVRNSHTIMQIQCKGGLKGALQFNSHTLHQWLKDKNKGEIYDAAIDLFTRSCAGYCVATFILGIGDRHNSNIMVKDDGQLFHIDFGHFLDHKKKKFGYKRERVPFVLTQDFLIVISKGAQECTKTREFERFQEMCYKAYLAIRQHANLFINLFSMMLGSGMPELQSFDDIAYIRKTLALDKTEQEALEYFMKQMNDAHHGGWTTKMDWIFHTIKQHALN
Sequence of PI3 Kinase (p110a/p85a) (P27986 whole entry partner): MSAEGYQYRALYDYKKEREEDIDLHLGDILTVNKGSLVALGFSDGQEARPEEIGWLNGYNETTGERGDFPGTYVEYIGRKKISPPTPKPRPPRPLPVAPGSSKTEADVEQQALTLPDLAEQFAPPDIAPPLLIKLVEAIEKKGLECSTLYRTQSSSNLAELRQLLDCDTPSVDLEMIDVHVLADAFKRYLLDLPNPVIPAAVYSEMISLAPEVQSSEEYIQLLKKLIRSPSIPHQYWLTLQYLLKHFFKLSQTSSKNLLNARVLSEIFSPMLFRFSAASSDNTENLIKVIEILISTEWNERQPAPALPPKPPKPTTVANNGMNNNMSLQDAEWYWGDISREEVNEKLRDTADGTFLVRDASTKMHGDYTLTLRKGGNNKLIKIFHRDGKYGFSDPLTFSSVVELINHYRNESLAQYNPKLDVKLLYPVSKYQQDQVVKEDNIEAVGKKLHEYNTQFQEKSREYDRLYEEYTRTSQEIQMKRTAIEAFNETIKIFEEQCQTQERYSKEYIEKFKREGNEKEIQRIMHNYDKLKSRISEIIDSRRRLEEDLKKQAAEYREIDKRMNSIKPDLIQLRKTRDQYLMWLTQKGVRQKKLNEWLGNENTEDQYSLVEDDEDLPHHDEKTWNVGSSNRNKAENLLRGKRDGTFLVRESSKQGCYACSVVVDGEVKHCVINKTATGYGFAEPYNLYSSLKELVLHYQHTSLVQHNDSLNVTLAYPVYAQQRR
Sequence of ErbB4 (Q15303 26-1308): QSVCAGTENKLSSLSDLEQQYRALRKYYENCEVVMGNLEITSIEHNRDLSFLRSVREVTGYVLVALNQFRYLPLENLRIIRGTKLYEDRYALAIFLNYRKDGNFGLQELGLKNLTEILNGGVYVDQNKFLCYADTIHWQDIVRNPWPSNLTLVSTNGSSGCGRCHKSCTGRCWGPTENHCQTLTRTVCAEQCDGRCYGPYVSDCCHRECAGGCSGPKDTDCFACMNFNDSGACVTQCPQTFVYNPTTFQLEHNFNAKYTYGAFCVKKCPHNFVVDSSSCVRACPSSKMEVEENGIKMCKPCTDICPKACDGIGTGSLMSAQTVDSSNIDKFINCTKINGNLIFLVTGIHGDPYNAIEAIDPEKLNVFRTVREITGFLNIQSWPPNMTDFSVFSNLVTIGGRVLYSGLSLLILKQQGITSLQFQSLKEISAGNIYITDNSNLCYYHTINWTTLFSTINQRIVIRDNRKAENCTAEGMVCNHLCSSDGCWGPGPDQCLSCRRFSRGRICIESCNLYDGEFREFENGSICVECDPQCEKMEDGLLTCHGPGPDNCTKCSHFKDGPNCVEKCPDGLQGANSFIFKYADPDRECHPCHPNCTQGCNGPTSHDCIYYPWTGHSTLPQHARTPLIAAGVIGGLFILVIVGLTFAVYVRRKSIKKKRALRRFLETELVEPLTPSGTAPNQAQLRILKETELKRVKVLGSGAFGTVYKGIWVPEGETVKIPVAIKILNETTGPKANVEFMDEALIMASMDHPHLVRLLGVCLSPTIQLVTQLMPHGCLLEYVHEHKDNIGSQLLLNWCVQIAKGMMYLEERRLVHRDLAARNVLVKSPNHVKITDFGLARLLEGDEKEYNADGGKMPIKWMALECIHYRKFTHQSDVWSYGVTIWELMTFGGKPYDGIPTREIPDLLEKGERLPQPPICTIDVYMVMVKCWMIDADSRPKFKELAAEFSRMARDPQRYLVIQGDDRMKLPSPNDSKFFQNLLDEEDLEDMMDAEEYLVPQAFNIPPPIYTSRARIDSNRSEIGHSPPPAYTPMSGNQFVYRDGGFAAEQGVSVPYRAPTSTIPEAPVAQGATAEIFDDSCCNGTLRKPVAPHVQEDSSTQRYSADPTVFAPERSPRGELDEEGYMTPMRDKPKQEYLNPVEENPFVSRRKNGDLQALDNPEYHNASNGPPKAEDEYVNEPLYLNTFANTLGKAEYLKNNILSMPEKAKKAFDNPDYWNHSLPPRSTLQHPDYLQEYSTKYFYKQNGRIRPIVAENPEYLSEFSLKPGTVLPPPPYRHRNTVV
T2 sequence (Q9ULK4 whole entry D400A/H449G): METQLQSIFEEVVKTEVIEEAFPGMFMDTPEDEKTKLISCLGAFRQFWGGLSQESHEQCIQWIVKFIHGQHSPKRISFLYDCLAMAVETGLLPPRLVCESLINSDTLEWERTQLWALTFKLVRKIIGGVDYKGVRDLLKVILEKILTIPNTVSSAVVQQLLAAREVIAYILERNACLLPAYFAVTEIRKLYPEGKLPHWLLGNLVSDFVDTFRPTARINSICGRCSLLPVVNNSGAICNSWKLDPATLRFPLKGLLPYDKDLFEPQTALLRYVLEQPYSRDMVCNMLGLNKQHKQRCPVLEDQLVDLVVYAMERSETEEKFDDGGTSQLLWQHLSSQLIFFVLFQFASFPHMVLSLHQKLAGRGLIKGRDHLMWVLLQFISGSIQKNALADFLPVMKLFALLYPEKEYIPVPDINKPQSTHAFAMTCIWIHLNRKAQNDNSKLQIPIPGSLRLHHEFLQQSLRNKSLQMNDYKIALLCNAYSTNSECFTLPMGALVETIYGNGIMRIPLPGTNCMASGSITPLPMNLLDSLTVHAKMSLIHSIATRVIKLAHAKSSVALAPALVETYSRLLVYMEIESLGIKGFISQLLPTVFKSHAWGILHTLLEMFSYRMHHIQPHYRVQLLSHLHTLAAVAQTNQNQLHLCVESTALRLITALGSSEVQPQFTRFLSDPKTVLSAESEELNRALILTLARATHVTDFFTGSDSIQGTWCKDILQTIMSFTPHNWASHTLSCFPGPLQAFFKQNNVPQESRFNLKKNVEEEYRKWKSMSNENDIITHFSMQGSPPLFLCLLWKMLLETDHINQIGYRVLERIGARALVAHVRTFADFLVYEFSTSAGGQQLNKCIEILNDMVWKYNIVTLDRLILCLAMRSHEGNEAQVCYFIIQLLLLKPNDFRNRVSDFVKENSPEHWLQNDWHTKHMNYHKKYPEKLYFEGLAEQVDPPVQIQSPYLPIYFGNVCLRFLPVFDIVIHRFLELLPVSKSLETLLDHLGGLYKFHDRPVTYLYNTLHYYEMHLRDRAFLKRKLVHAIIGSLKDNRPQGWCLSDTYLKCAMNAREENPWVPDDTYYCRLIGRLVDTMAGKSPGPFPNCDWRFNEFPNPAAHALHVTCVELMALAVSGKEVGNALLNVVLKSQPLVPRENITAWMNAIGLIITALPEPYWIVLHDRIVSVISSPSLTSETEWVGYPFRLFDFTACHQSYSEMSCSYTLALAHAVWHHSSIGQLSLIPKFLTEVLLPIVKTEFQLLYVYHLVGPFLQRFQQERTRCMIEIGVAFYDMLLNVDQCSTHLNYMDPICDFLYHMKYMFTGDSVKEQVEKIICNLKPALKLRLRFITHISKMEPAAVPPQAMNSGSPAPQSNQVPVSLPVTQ

CC(=O)N1N=C(c2cccc(O)c2)CC1c1ccc(Cl)cc1 (centres unmarked) [Compound 15, 1-[5-(4-Chlorophenyl)-3-(3-hydroxyphenyl)-4,5-dihydropyrazol-1-yl]-ethanone]
inhibition at 10 µM (ErbB4; ErbB4, 10 μM): 0% | inhibition at 25 µM (ErbB4; ErbB4, 25 μM): 0% | HER2 levels reduction (HER2): approximately 1.8 fold | anticancer effect in TZMB-resistant cells (TZMB-resistant cells): significant anticancer effects not only in TZMB-sensitive cells but also in TZMB-resistant cells | Ki ([1]; 80 nM (His)6-MED23391-582, 10 nM FITC-ELF3129-145, Cheng-Prusoff, read-out: PPI inhibitory activity calculated based on Ki value): 4.27 ± 0.25 µM | decrease in FP signals ([1]; displacement of FITC-ELF3129-145 from MED23391-582): significant decrease in FP signals | binding to double mutant MED23 (MED23^D400A/H449G): unable to bind to the double mutant MED23^D400A/H449G | kinase inhibitory activity in words [2]: no significant inhibitory activity | inhibition at 10 µM (PI3 Kinase (p110a/p85a); 10 μM): 3% | inhibition at 25 µM (PI3 Kinase (p110a/p85a); 25 μM): 17% | body weight [3]: remained generally consistent

Source: US20260373119A1, “NOVEL COMPOUND, AND COMPOSITION FOR PREVENTING OR TREATING HER2-POSITIVE CANCER, COMPRISING SAME” (EWHA UNIVERSITY - INDUSTRY COLLABORATION FOUNDATION, priority 2022, published 2026)
